Measurements taken from ChEMBL document CHEMBL1201862, “PubChem BioAssay data set” (2004).
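Growth conditions: 96-well plates. Treatment: test compound, 48 hours, 5 concentrations. Analysis: linear interpolation between bracketing concentrations; unreached endpoints set to highest concentration. GI50 marks 50% less growth.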 Active and inactive are the calls of the source. Rule as the data show it: active = GI50 up to about 1.1 µM and inactive = higher.

Assays:
Test in all cases: NCI-60 cell line screen, 48 h
[1] = system: SK-MEL-5
[2] = system: SF-539
[3] = system: CAKI-1
[4] = system: SK-MEL-2
[5] = system: Hs-578T
[6] = system: OVCAR-3
[7] = system: 786-0
[8] = system: SW-620
[9] = system: UACC-257
[10] = system: SK-OV-3
[11] = system: NCI-H23
[12] = system: COLO 205
[13] = system: UACC-62
[14] = system: KM12
[15] = system: SK-MEL-28
[16] = system: RPMI-8226
[17] = system: MOLT-4
[18] = system: Malme-3M
[19] = system: IGROV-1

Measured: GI50

CCOC(=O)C(NC(=O)c1ccccc1)(Nc1ccc(S(=O)(=O)Nc2ccc(OC)nn2)cc1)C(F)(F)F (stereo not drawn)
inactive: [1] > 100 µM | [2] > 100 µM | [3] > 100 µM | [4] > 100 µM | [5] > 100 µM | [6] > 100 µM | [7] > 100 µM | [8] > 100 µM | [9] > 100 µM | [10] > 100 µM | [11] > 100 µM | [12] > 100 µM | [13] > 100 µM | [14] > 100 µM | [15] > 100 µM | [16] > 100 µM | [17] > 100 µM | [18] > 100 µM | [19] > 100 µM

CCN=C=NCCCN(C)C
inactive: [1] > 100 µM | [2] > 100 µM | [3] > 100 µM | [4] > 100 µM | [5] > 100 µM | [6] > 100 µM | [7] > 100 µM | [8] > 100 µM | [9] > 100 µM | [10] > 100 µM | [11] > 100 µM | [12] > 100 µM | [13] > 100 µM | [14] > 100 µM | [15] > 100 µM | [16] > 100 µM | [17] > 100 µM | [18] > 100 µM | [19] > 100 µM

S=C1N=C(Cl)/C(=C\c2ccco2)N1
inactive: [1] > 100 µM | [2] > 100 µM | [3] > 100 µM | [4] > 100 µM | [5] > 100 µM | [6] > 100 µM | [7] > 100 µM | [8] > 100 µM | [9] > 100 µM | [10] > 100 µM | [11] > 100 µM | [12] > 100 µM | [13] > 100 µM | [14] > 100 µM | [15] > 100 µM | [16] > 100 µM | [17] > 10 µM | [18] > 100 µM | [19] > 100 µM

Nc1nc(N)c2ncn(Cc3ccccc3)c2n1
inactive: [1] > 100 µM | [2] > 100 µM | [3] > 100 µM | [4] > 100 µM | [5] > 100 µM | [6] > 100 µM | [7] > 100 µM | [8] > 100 µM | [9] > 100 µM | [10] > 100 µM | [11] > 100 µM | [12] > 100 µM | [13] > 100 µM | [14] > 100 µM | [15] > 100 µM | [16] > 100 µM | [17] > 100 µM | [18] > 100 µM | [19] > 100 µM

CN(C)c1ccc(C(C#N)N2CCCN(C(C#N)c3ccc(N(C)C)cc3)C2c2ccc(N(C)C)cc2)cc1 (stereo not drawn)
inactive: [1] > 100 µM | [2] > 100 µM | [3] > 100 µM | [4] > 100 µM | [5] > 100 µM | [6] > 100 µM | [7] > 100 µM | [8] > 100 µM | [9] > 100 µM | [10] > 100 µM | [11] > 100 µM | [12] > 100 µM | [13] > 100 µM | [14] > 100 µM | [15] > 100 µM | [16] > 100 µM | [17] > 100 µM | [18] > 100 µM | [19] > 100 µM

CSc1c(C#N)c(S)[nH]c(=O)c1C#N
inactive: [1] 9.91 µM | [2] > 100 µM | [3] > 100 µM | [4] 13.7 µM | [5] 24.2 µM | [6] 33.8 µM | [7] 71.8 µM | [8] 48.9 µM | [9] 35.8 µM | [10] > 100 µM | [11] 23.7 µM | [12] 31.9 µM | [13] 21.2 µM | [14] 65.8 µM | [15] 46.1 µM | [16] 3.89 µM | [17] 33 µM | [18] 7.14 µM | [19] 22.8 µM

Clc1ccc(C2c3ccccc3-c3nc4ccccc4n32)cc1 (stereo not drawn)
inactive: [1] 27.4 µM | [2] > 54.7 µM | [3] 37.1 µM | [4] 22.2 µM | [5] 4.92 µM | [6] 12.6 µM | [7] 17.7 µM | [8] 44.8 µM | [9] 53.7 µM | [10] 3.34 µM | [11] 15.5 µM | [12] > 61.2 µM | [13] 26.3 µM | [14] 13 µM | [15] > 56.8 µM | [16] 9.75 µM | [17] 8.09 µM | [18] 38.8 µM | [19] 12.6 µM
